Data from US20250134907A1, “FUSED DIAZEPINES AS AGONISTS OF THE INSULIN-LIKE 3 (INSL3) PEPTIDE RECEPTOR RXFP2 AND METHODS OF USE THEREOF” (The United States of America,as represented by the …, priority 2022, published 2025).

Assays:
[1] = tested on: 320 GPCR Tango constructs; test: PRESTO-Tango GPCRome counter-screen (beta-arrestin recruitment) in transiently transfected HTLA cells; type: cell-based; conditions: 10 μM compound, 320 GPCRs
Description: The PRESTO-Tango GPCRome assay, which measures G-protein coupled receptors (GPCR) mediated beta-arrestin recruitment, was used to perform a HTS of related GPCRs to study specificity and selectivity of the RXFP2 agonists. A total of 320 GPCR Tango constructs were tested. Each of the GPCR constructs used in the assay contained a FLAG tag, the GPCR gene of interest, a Vasopressin 2 C-terminal tail, the TEV protease cleavage site, and the tetracycline-controlled transactivator (tTA) transcription factor. The assay was performed using transiently transfected HTLA cells that stably express the beta-arrestin2-TEV protease fusion protein and a luciferase reporter gene under the control of the tTA transcription factor. Ligand activation of the transfected GPCR construct induces beta-arrestin translocation to the GPCR, where the tobacco etch virus (TEV) protease cleaves the tTA transcription factor, causing activation of luciferase transcription in the nucleus. Thus, luciferase activity in these cells is proportional to beta-arrestin translocation activity. For this assay, HTLA cells were seeded in Poly-L-Lys (PLL)-coated 384-well white clear-bottom plates at 10,000 cell/well in 40 μl/well DMEM supplemented with 10% FBS. […] Plates were incubated for 20 minutes at room temperature protected from light and the luminescence signal was read on a MicroBeta counter (PerkinElmer, Waltham, MA). […]

[2] = target: T1, chimera RXFP1-2 (extracellular domain of RXFP1, transmembrane domain of RXFP2) (Homo sapiens, UniProt Q8WXD0); test: HTRF cAMP assay in HEK293T cells transiently transfected with chimera RXFP1-2; type: cell-based; conditions: RXFP1-2 chimera
T1 construct: other: RXFP1-2 chimera; Emax; normalized to 2 μM forskolin cAMP response as 100% activity; fused on or other part: FLAG tag; The RXFP1 extracellular domain is the N-terminal part of the chimera and the RXFP2 transmembrane domain is the C-terminal part; Q9HBX9 (Relaxin receptor 1)
T1 sequence (Q8WXD0 417-754 limits assumed, change not shown): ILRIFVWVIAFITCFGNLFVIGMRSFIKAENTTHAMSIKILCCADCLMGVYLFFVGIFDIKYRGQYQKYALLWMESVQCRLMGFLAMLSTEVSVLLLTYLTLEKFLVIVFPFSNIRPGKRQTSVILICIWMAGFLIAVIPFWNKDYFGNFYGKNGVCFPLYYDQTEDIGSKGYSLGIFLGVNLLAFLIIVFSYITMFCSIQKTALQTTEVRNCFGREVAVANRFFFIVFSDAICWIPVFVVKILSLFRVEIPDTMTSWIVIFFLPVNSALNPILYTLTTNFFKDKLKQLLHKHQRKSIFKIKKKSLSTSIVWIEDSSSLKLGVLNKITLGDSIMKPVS
Text: To further investigate the involvement of the RXFP2 extracellular and transmembrane domains in agonist activation of the receptor, two complementary chimeras were created using the RXFP1 receptor, which is not activated by the agonists of formula (I), to transiently transfect HEK293T cells and measured changes in cAMP induction using the HTRF assay.
Chimeric receptors were generated by IN-FUSION™ (Takara Bio USA, Inc., San Jose, CA) mutagenesis using full-length human RXFP1 and RXFP2 receptor constructs. Polymerase chain reaction (PCR) was performed using PfuTurbo high-fidelity DNA polymerase (Agilent Technologies, Santa Clara, CA) and overlapping primers with at least 15 bp sequence homology within the fusion site. PCR products were digested with Dpnl restricton enzyme at 37° C. overnight, run on a 0.8% agarose gel and purified using the GENEJET™ Gel extraction kit (Thermo Scientific, Waltham, MA). The purified DNA fragments were then ligated into the BamHI and XhoI pre-digested pcDNA3.1™/Zeo(+) AmpR mammalian expression vector using the In-Fusion HD enzyme premix (Clontech, Mountain View, CA) at 50° C. for 15 minutes, and the resulting product was used to transform Stellar competent cells (Takara Bio USA, Inc., San Jose, CA). The clones were fully sequenced to confirm the correct fusion of both receptor fragments. Chimera RXFP2-1 contained the extracellular domain of RXFP2 and the transmembrane domain of RXFP1. Accordingly, chimera RXFP1-2 contained the extracellular domain of RXFP1 and the transmembrane domain of RXFP2.
HEK293T cells were seeded in 6-well flat-bottom clear plates at 0.5 million cells/well in 2 mL/well of growth medium (DMEM, 10% FBS, 1× Pen/Strep) and allowed to attach overnight at 37° C. and 5% CO2. The next morning, cells were transfected with 2 μg of plasmid (chimeric receptors, WT RXFP2, or WT RXFP1) and 6 μl of Lipofectamine2000 (Invitrogen, Waltham, MA) in a total volume of 200 μl/well OPTI-MEM™ I (Thermo Fisher, Waltham, MA) reduced serum medium and allowed to incubate an additional 24 hours. The next day, transfected cells were seeded in 96-well flat-bottom opaque plates at 30,000 cells/well in 60 μL/well of serum-free DMEM medium and allowed to attach overnight at 37° C. at 5% CO2. The next morning, cells were treated with 1 μL/well of compound (25 μM-0.25 nM), 2 μM forskolin, or DMSO vehicle. Cells were also treated with 4 μL of positive control INSL3 (100-0.01 nM), Relaxin2 (100-10 nM), or vehicle (serum-free DMEM+IBMX). Plates were incubated for 1 hour at 37° C. and 5% CO2, after which kit cAMP-d2 and anti-cAMP antibody were added as previously described. Cells were incubated for 1 hour at room temperature, and then the signal was read on a CLARIOstar plate reader (BMG Labtech, Germany).

| Structure (SMILES) | GPCR agonist hits (minimum 3.0-fold RLU of basal) [1] | Emax ([2]; HEK-293T, normalized to 2 μM forskolin cAMP response as 100% activity) [%] | EC50 ([2]; read-out: EC50 (μM or nM)) [µM] |
| --- | --- | --- | --- |
| O=C1Nc2ccc(-c3cc(C(F)(F)F)cc(C(F)(F)F)c3)cc2C(=O)N2CCN(C(=O)COc3ccc(OC(F)(F)F)cc3Br)C[C@@H]12 [Example 158, (S)-8-(3,5-Bis(trifluoromethyl)phenyl)-2-(2-(2-bromo-4-(trifluoromethoxy)phenoxy)acetyl)-1,3,4,12a-tetrahydrobenzo[e]pyrazino[1,2-a][1,4]diazepine-6,12 (2H, 11H)-dione] | very few GPCR hits | – | – |
| O=C1Nc2ccc(-c3cc(C(F)(F)F)cc(C(F)(F)F)c3)cc2C(=O)N2CCN(C(=O)COc3ccc(OC(F)(F)F)cc3I)C[C@@H]12 [Example 187, (S)-8-(3,5-bis(trifluoromethyl)phenyl)-2-(2-(2-iodo-4-(trifluoromethoxy)phenoxy)acetyl)-1,3,4,12a-tetrahydrobenzo[e]pyrazino[1,2-a][1,4]diazepine-6,12 (2H, 11H)-dione] | – | 96.47 ± 0.43 | 0.016 ± 0.002 |
